PubChem BioAssay AID1963981 (Molecular Pharmacology Branch, DTP, NCI, 2024)

System: 354836-022-R-J1-PDC multicell spheroid viability
Experiment: Anticancer human tumor 354836-022-R-J1-PDC patient-derived head and neck squamous cell carcinoma cell line growth inhibition [PI3K]
Conditions: second compound 0.316 µM; first compound 1 µM; active compounds read low
Summary of the method: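 Combination activity was assessed by viability in multicellular tumor spheroids carrying HUVEC and MSC components. Agents were tested with PI3K inhibitors from a Cmax-based top dose (or 10 microM) downward in half-log increments.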
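Also: spheroids exposed to agents for seven days before the viability read.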

Question: With `C=CC(=O)N1CCN(c2nc(=O)n(-c3c(C)ccnc3C(C)C)c3nc(-c4c(O)cccc4F)c(F)cc23)C(C)C1` (stereo unspecified) + CC(Nc1ncnc2nc[nH]c12)c1cc2cccc(Cl)c2c(=O)n1-c1ccccc1 as the compound, how does the viability, T/C read?
Answer: 116%

Question: With `CCN1CCN(Cc2ccc(Nc3ncc(F)c(-c4cc(F)c5nc(C)n(C(C)C)c5c4)n3)nc2)CC1` + CC(Nc1ncnc2nc[nH]c12)c1cc2cccc(Cl)c2c(=O)n1-c1ccccc1 as the compound, how does the viability, T/C read?
Answer: 58.1%

Question: `C#Cc1c(F)ccc2cc(O)cc(-c3ncc4c(N5CC6CCC(C5)N6)nc(OCC56CCCN5CC(F)C6)nc4c3F)c12` (stereo unspecified) + CC(Nc1ccc2c(c1)OCCn1cc(N3C(=O)OCC3C(F)F)nc1-2)C(N)=O was tested. Which viability, T/C did it give?
Answer: 79.7%

Question: Which viability, T/C does the source give for `CC(C)NCC(C(=O)N1CCN(c2ncnc3c2C(C)CC3O)CC1)c1ccc(Cl)cc1` (stereo unspecified) + COc1c(OCCCN2CCOCC2)ccc2c3n(c(=NC(=O)c4cnc(N)nc4)nc12)CCN3 here?
Answer: 3.46%

Question: For `CC1(C)CCC(Nc2ncc(C(F)(F)F)c(-c3c[nH]c4c(P(C)(C)=O)c(C#N)ccc34)n2)CN1` (stereo unspecified) + Cc1nc(NC(=O)N2CCCC2C(N)=O)sc1-c1ccnc(C(C)(C)C(F)(F)F)c1, which viability, T/C is on record?
Answer: 25%

Same assay, conditions: second compound 0.316 µM; first compound 3.16 µM; active compounds read low

Question: Which viability, T/C does the source give for `C=CC(=O)N1CCN(c2nc(=O)n(-c3c(C)ccnc3C(C)C)c3nc(-c4c(O)cccc4F)c(F)cc23)C(C)C1` (stereo unspecified) + CC(Nc1ncnc2nc[nH]c12)c1cc2cccc(Cl)c2c(=O)n1-c1ccccc1 here?
Answer: 106%

Question: Which viability, T/C does the source give for `C#Cc1c(F)ccc2cc(O)cc(-c3ncc4c(N5CC6CCC(C5)N6)nc(OCC56CCCN5CC(F)C6)nc4c3F)c12` (stereo unspecified) + CC(Nc1ccc2c(c1)OCCn1cc(N3C(=O)OCC3C(F)F)nc1-2)C(N)=O here?
Answer: 83.5%

Question: For `CC(C)NCC(C(=O)N1CCN(c2ncnc3c2C(C)CC3O)CC1)c1ccc(Cl)cc1` (stereo unspecified) + COc1c(OCCCN2CCOCC2)ccc2c3n(c(=NC(=O)c4cnc(N)nc4)nc12)CCN3, which viability, T/C is on record?
Answer: 1.76%

Question: `CC1(C)CCC(Nc2ncc(C(F)(F)F)c(-c3c[nH]c4c(P(C)(C)=O)c(C#N)ccc34)n2)CN1` (stereo unspecified) + Cc1nc(NC(=O)N2CCCC2C(N)=O)sc1-c1ccnc(C(C)(C)C(F)(F)F)c1 was tested. Which viability, T/C did it give?
Answer: 24%

Same assay, conditions: second compound 0.316 µM; first compound 10 µM; active compounds read low

Question: How did the viability, T/C turn out when `C=CC(=O)N1CCN(c2nc(=O)n(-c3c(C)ccnc3C(C)C)c3nc(-c4c(O)cccc4F)c(F)cc23)C(C)C1` (stereo unspecified) + CC(Nc1ncnc2nc[nH]c12)c1cc2cccc(Cl)c2c(=O)n1-c1ccccc1 was run?
Answer: 88.1%

Question: How did the viability, T/C turn out when `C#Cc1c(F)ccc2cc(O)cc(-c3ncc4c(N5CC6CCC(C5)N6)nc(OCC56CCCN5CC(F)C6)nc4c3F)c12` (stereo unspecified) + CC(Nc1ccc2c(c1)OCCn1cc(N3C(=O)OCC3C(F)F)nc1-2)C(N)=O was run?
Answer: 61.9%

Question: `CC(C)NCC(C(=O)N1CCN(c2ncnc3c2C(C)CC3O)CC1)c1ccc(Cl)cc1` (stereo unspecified) + COc1c(OCCCN2CCOCC2)ccc2c3n(c(=NC(=O)c4cnc(N)nc4)nc12)CCN3 was tested. Which viability, T/C did it give?
Answer: 0.91%

Question: Which viability, T/C does the source give for `CC1(C)CCC(Nc2ncc(C(F)(F)F)c(-c3c[nH]c4c(P(C)(C)=O)c(C#N)ccc34)n2)CN1` (stereo unspecified) + Cc1nc(NC(=O)N2CCCC2C(N)=O)sc1-c1ccnc(C(C)(C)C(F)(F)F)c1 here?
Answer: 1.82%

Same assay, conditions: second compound 1 µM; first compound 0.00316 µM; active compounds read low

Question: With `CCN1CCN(Cc2ccc(Nc3ncc(F)c(-c4cc(F)c5nc(C)n(C(C)C)c5c4)n3)nc2)CC1` + CC(Nc1ncnc2nc[nH]c12)c1cc2cccc(Cl)c2c(=O)n1-c1ccccc1 as the compound, how does the viability, T/C read?
Answer: 119%

Same assay, conditions: second compound 1 µM; first compound 0.01 µM; active compounds read low

Question: For `CCN1CCN(Cc2ccc(Nc3ncc(F)c(-c4cc(F)c5nc(C)n(C(C)C)c5c4)n3)nc2)CC1` + CC(Nc1ncnc2nc[nH]c12)c1cc2cccc(Cl)c2c(=O)n1-c1ccccc1, which viability, T/C is on record?
Answer: 104%

Same assay, conditions: second compound 1 µM; first compound 0.0316 µM; active compounds read low

Question: Which viability, T/C does the source give for `C=CC(=O)N1CCN(c2nc(=O)n(-c3c(C)ccnc3C(C)C)c3nc(-c4c(O)cccc4F)c(F)cc23)C(C)C1` (stereo unspecified) + CC(Nc1ncnc2nc[nH]c12)c1cc2cccc(Cl)c2c(=O)n1-c1ccccc1 here?
Answer: 103%

Question: How did the viability, T/C turn out when `CCN1CCN(Cc2ccc(Nc3ncc(F)c(-c4cc(F)c5nc(C)n(C(C)C)c5c4)n3)nc2)CC1` + CC(Nc1ncnc2nc[nH]c12)c1cc2cccc(Cl)c2c(=O)n1-c1ccccc1 was run?
Answer: 94.9%

Question: Which viability, T/C does the source give for `C#Cc1c(F)ccc2cc(O)cc(-c3ncc4c(N5CC6CCC(C5)N6)nc(OCC56CCCN5CC(F)C6)nc4c3F)c12` (stereo unspecified) + CC(Nc1ccc2c(c1)OCCn1cc(N3C(=O)OCC3C(F)F)nc1-2)C(N)=O here?
Answer: 70.2%

Question: For `CC(C)NCC(C(=O)N1CCN(c2ncnc3c2C(C)CC3O)CC1)c1ccc(Cl)cc1` (stereo unspecified) + COc1c(OCCCN2CCOCC2)ccc2c3n(c(=NC(=O)c4cnc(N)nc4)nc12)CCN3, which viability, T/C is on record?
Answer: 1.35%

Question: `CC1(C)CCC(Nc2ncc(C(F)(F)F)c(-c3c[nH]c4c(P(C)(C)=O)c(C#N)ccc34)n2)CN1` (stereo unspecified) + Cc1nc(NC(=O)N2CCCC2C(N)=O)sc1-c1ccnc(C(C)(C)C(F)(F)F)c1 was tested. Which viability, T/C did it give?
Answer: 14.9%

Same assay, conditions: second compound 1 µM; first compound 0.1 µM; active compounds read low

Question: With `C=CC(=O)N1CCN(c2nc(=O)n(-c3c(C)ccnc3C(C)C)c3nc(-c4c(O)cccc4F)c(F)cc23)C(C)C1` (stereo unspecified) + CC(Nc1ncnc2nc[nH]c12)c1cc2cccc(Cl)c2c(=O)n1-c1ccccc1 as the compound, how does the viability, T/C read?
Answer: 98.4%

Question: For `CCN1CCN(Cc2ccc(Nc3ncc(F)c(-c4cc(F)c5nc(C)n(C(C)C)c5c4)n3)nc2)CC1` + CC(Nc1ncnc2nc[nH]c12)c1cc2cccc(Cl)c2c(=O)n1-c1ccccc1, which viability, T/C is on record?
Answer: 109%

Question: With `C#Cc1c(F)ccc2cc(O)cc(-c3ncc4c(N5CC6CCC(C5)N6)nc(OCC56CCCN5CC(F)C6)nc4c3F)c12` (stereo unspecified) + CC(Nc1ccc2c(c1)OCCn1cc(N3C(=O)OCC3C(F)F)nc1-2)C(N)=O as the compound, how does the viability, T/C read?
Answer: 56.8%

Question: For `CC(C)NCC(C(=O)N1CCN(c2ncnc3c2C(C)CC3O)CC1)c1ccc(Cl)cc1` (stereo unspecified) + COc1c(OCCCN2CCOCC2)ccc2c3n(c(=NC(=O)c4cnc(N)nc4)nc12)CCN3, which viability, T/C is on record?
Answer: 1.54%

Question: For `CC1(C)CCC(Nc2ncc(C(F)(F)F)c(-c3c[nH]c4c(P(C)(C)=O)c(C#N)ccc34)n2)CN1` (stereo unspecified) + Cc1nc(NC(=O)N2CCCC2C(N)=O)sc1-c1ccnc(C(C)(C)C(F)(F)F)c1, which viability, T/C is on record?
Answer: 18%

Same assay, conditions: second compound 1 µM; first compound 0.316 µM; active compounds read low

Question: For `C=CC(=O)N1CCN(c2nc(=O)n(-c3c(C)ccnc3C(C)C)c3nc(-c4c(O)cccc4F)c(F)cc23)C(C)C1` (stereo unspecified) + CC(Nc1ncnc2nc[nH]c12)c1cc2cccc(Cl)c2c(=O)n1-c1ccccc1, which viability, T/C is on record?
Answer: 108%
